Laboratory results reported in US20110021530A1, “PYRIDAZINE DERIVATIVES AND THEIR USE AS THERAPEUTIC AGENTS IN THE TREATMENT OF SKIN DISORDERS” (XENON PHARMACEUTICALS INC., priority 2008, published 2011).

Legend:
[1] = molecular target: T1, stearoyl-CoA desaturase (SCD) (Mus musculus, UniProt P13516); assay: HTS microsomal assay of stearoyl-CoA desaturase inhibition using mouse liver microsomes; assay type: biochemical; conditions: % SCD enzyme activity remaining at 10 μM test compound
T1 construct: Reactions are started by adding 2 mg of microsomal protein; from tissue; host or cells: liver microsomes of male ICR mice on a high-carbohydrate, low fat diet
T1 sequence (P13516 1-355): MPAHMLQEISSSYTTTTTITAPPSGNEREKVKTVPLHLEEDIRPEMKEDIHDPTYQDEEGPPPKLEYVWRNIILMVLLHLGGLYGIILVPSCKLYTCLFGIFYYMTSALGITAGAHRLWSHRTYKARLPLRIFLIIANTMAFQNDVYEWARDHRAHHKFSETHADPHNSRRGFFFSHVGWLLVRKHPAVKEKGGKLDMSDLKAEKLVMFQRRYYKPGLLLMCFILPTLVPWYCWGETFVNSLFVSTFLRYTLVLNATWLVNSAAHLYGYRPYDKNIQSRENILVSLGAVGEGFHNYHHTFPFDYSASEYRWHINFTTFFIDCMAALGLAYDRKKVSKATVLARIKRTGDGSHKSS
Method: The absence of mitochondrial contamination is enzymatically assessed.
The compounds are analyzed with an HTS microsomal assay.

[2] = molecular target: T2, SCD (Mus musculus, UniProt P13516); assay: Mouse SCD IC50 determination for compounds active in the HTS assay; assay type: biochemical
T2 sequence (P13516 1-355): T1 sequence (P13516 1-355)
Method: The compounds are analyzed with an HTS microsomal assay. The activities are defined in terms of % SCD enzyme activity remaining at the selected concentration (e.g., 10 μM) of the test compounds.

[3] = tested on: HEPG2; assay: HEPG2 IC50; assay type: cell-based; conditions: Homo sapiens

| melting point | Mouse microsome SCD activity % remaining @ 10 μM [1] | IC50 [2] | IC50 [3] | Compound |
| --- | --- | --- | --- | --- |
| 148 to 151 °C |  |  |  | CC(C)CCNC(=O)c1ccc(N2CCN(C(=O)c3cc(Cl)ccc3C(F)(F)F)CC2)nn1 [Example 3.7, 6-[4-(5-CHLORO-2-TRIFLUOROMETHYLBENZOYL)PIPERAZIN-1-YL]PYRIDAZINE-3-CARBOXYLIC ACID (3-METHYLBUTYL)AMIDE] |
| 181 to 183 °C |  |  |  | CC(O)(C(=O)N1CCN(c2ccc(C(=O)NCCC3CC3)nn2)CC1)C(F)(F)F (stereo not drawn) [Example 14.8, 6-[4-(3,3,3-TRIFLUORO-2-HYDROXY-2-METHYLPROPIONYL)PIPERAZIN-1-YL]PYRIDAZINE-3-CARBOXYLIC ACID (2-CYCLOPROPYLETHYL)AMIDE] |
| 236 to 240 °C |  |  |  | CC(C)(C)C(O)CNC(=O)c1ccc(N2CCN(C(=O)c3ccccc3C(F)(F)F)CC2)nn1 (stereo not drawn) [Example 15.29, 6-[4-(2-TRIFLUOROMETHYLBENZOYL)PIPERAZIN-1-YL]PYRIDAZINE-3-CARBOXYLIC ACID (2-HYDROXY-3,3-DIMETHYLBUTYL)AMIDE] |
| 186 to 189 °C |  |  |  | CC(C)(C)C(O)CNC(=O)c1ccc(N2CCN(C(=O)c3cc(F)ccc3C(F)(F)F)CC2)nn1 (stereo not drawn) [Example 15.30, 6-[4-(5-FLUORO-2-TRIFLUOROMETHYLBENZOYL)PIPERAZIN-1-YL]PYRIDAZINE-3-CARBOXYLIC ACID (2-HYDROXY-3,3-DIMETHYLBUTYL)AMIDE] |
| 43 to 45 °C |  |  |  | CC(C)CCCNC(=O)c1ccc(N2CCN(C(=O)c3ccccc3C(F)(F)F)CC2)nn1 [Example 15.33, 6-[4-(2-TRIFLUOROMETHYLBENZOYL)PIPERAZIN-1-YL]PYRIDAZINE-3-CARBOXYLIC ACID (4-METHYLPENTYL)AMIDE] |
| 117 to 119 °C |  |  |  | O=C(NCC(O)c1cccc(F)c1)c1ccc(N2CCN(C(=O)c3ccccc3C(F)(F)F)CC2)nn1 (stereo not drawn) [Example 27.4, 6-[4-(2-TRIFLUOROMETHYLBENZOYL)PIPERAZIN-1-YL]PYRIDAZINE-3-CARBOXYLIC ACID [2-(3-FLUOROPHENYL)-2-HYDROXYETHYL]AMIDE] |
| 151 to 154 °C |  |  |  | O=C(NCCc1ccccn1)c1ccc(N2CCN(C(=O)c3ccccc3C(F)(F)F)CC2)nn1 [Example 28.2, 6-[4-(2-TRIFLUOROMETHYLBENZOYL)PIPERAZIN-1-YL]PYRIDAZINE-3-CARBOXYLIC ACID (2-PYRIDIN-2-YLETHYL)AMIDE] |
| 162 to 164 °C |  |  |  | O=C(NCCc1ccc2c(c1)OCO2)c1ccc(N2CCN(C(=O)c3ccccc3C(F)(F)F)CC2)nn1 [Example 30.1, 6-[4-(2-TRIFLUOROMETHYLBENZOYL)PIPERAZIN-1-YL]PYRIDAZINE-3-CARBOXYLIC ACID (2-BENZO[1,3]DIOXOL-5-YL-ETHYL)AMIDE] |

Continued, compound first:

| Compound | melting point | Mouse microsome SCD activity % remaining @ 10 μM [1] | IC50 [2] | IC50 [3] |
| --- | --- | --- | --- | --- |
| O=C(NCCC1CC1)Nc1ccc(N2CCN(C(=O)c3ccccc3C(F)(F)F)CC2)nn1 | > 300 °C |  |  |  |
| O=C(NCCC1CC1)c1ccc(N2CCN(C(=O)c3cc(C(F)(F)F)ccc3C(F)(F)F)CC2)nn1 [6-[4-(2,5-BIS-TRIFLUOROMETHYLBENZOYL)PIPERAZIN-1-YL]PYRIDAZINE-3-CARBOXYLIC ACID (2-CYCLOPROPYLETHYL)AMIDE] |  | 6% | 150 nM | 70 nM |
| O=C(NCCC1CC1)c1ccc(N2CCN(Cc3cc(Cl)ccc3Cl)CC2)nn1 [6-[4-(2,5-DICHLOROBENZYL)PIPERAZIN-1-YL]PYRIDAZINE-3-CARBOXYLIC ACID (2-CYCLOPROPYLETHYL)AMIDE] |  | 8% | 180 nM | 60 nM |
| CC(C)CCNC(=O)c1ccc(N2CCN(C(=O)c3ccccc3N)CC2)nn1 [6-[4-(2-AMINOBENZOYL)PIPERAZIN-1-YL]PYRIDAZINE-3-CARBOXYLIC ACID (3-METHYLBUTYL)AMIDE] |  | 23% | 450 nM | 640 nM |
| O=C(NCCC1CC1)c1ccc(N2CCN(Cc3ccc(F)cc3Cl)CC2)nn1 [6-[4-(2-CHLORO-4-FLUOROBENZYL)PIPERAZIN-1-YL]PYRIDAZINE-3-CARBOXYLIC ACID (2-CYCLOPROPYLETHYL)AMIDE] |  | 11% | 130 nM | 70 nM |
| CC(C)CCNC(=O)c1ccc(N2CCN(C(=O)c3ccccc3[N+](=O)[O-])CC2)nn1 [6-[4-(2-NITROBENZOYL)PIPERAZIN-1-YL]PYRIDAZINE-3-CARBOXYLIC ACID (3-METHYLBUTYL)AMIDE] |  | 8% | 80 nM | 120 nM |
| O=C(NCC1CC1)c1ccc(N2CCN(C(=O)c3ccccc3C(F)(F)F)CC2)nn1 [6-[4-(2-TRIFLUOROMETHYLBENZOYL)PIPERAZIN-1-YL]PYRIDAZINE-3-CARBOXYLIC ACID CYCLOPROPYLMETHYLAMIDE] |  | 49% | 8690 nM | 5520 nM |
| O=C(NCCc1ccc(F)cc1F)c1ccc(N2CCN(C(=O)c3ccccc3C(F)(F)F)CC2)nn1 [6-[4-(2-TRIFLUOROMETHYLBENZOYL)PIPERAZIN-1-YL]PYRIDAZINE-3-CARBOXYLIC ACID [2-(2,4-DIFLUOROPHENYL)ETHYL]AMIDE] | 179 to 181 °C | 5% | 20 nM | 20 nM |
| COc1ccc(CCNC(=O)c2ccc(N3CCN(C(=O)c4ccccc4C(F)(F)F)CC3)nn2)cc1 [6-[4-(2-TRIFLUOROMETHYLBENZOYL)PIPERAZIN-1-YL]PYRIDAZINE-3-CARBOXYLIC ACID [2-(4-METOXYPHENYL)ETHYL]AMIDE] |  | 7% | 1630 nM | 80 nM |
| O=C(NCCC1CC1)c1ccc(N2CCN(C(=O)c3ccoc3C(F)(F)F)CC2)nn1 [6-[4-(2-TRIFLUOROMETHYLFURAN-3-CARBONYL)PIPERAZIN-1-YL]PYRIDAZINE-3-CARBOXYLIC ACID (2-CYCLOPROPYLETHYL)AMIDE] |  | 7% | 260 nM | 290 nM |
| CC(C(=O)N1CCN(c2ccc(C(=O)NCCC3CC3)nn2)CC1)(C(F)(F)F)C(F)(F)F [6-[4-(3,3,3-TRIFLUORO-2-METHYL-2-TRIFLUOROMETHYLPROPIONYL)PIPERAZIN-1-YL]PYRIDAZINE-3-CARBOXYLIC ACID (2-CYCLOPROPYLETHYL)AMIDE] |  | 8% | 110 nM | 120 nM |
| O=C(NCCC1CC1)c1ccc(N2CCN(C(=O)CC(O)(C(F)(F)F)C(F)(F)F)CC2)nn1 [6-[4-(4,4,4-TRIFLUORO-3-HYDROXY-3-TRIFLUOROMETHYLBUTYRYL)PIPERAZIN-1-YL]PYRIDAZINE-3-CARBOXYLIC ACID (2-CYCLOPROPYLETHYL)AMIDE] |  | 8% | 480 nM | 120 nM |
| CC(=CC(=O)N1CCN(c2ccc(C(=O)NCCC(C)C)nn2)CC1)C(F)(F)F [6-[4-(4,4,4-TRIFLUORO-3-METHYLBUT-2-ENOYL)PIPERAZIN-1-YL]PYRIDAZINE-3-CARBOXYLIC ACID (3-METHYLBUTYL)AMIDE] |  | 9% | 340 nM | 540 nM |
| O=C(NCCC1CC1)c1ccc(N2CCN(Cc3ccc(F)cc3C(F)(F)F)CC2)nn1 [6-[4-(4-FLUORO-2-TRIFLUOROMETHYLBENZYL)-PIPERAZIN-1-YL]PYRIDAZINE-3-CARBOXYLIC ACID (2-CYCLOPROPYLETHYL)AMIDE] |  | 12% | 20 nM | 10 nM |
| CC(C)CCNC(=O)c1ccc(N2CCN(C(=O)c3cnccc3C(F)(F)F)CC2)nn1 [6-[4-(4-TRIFLUOROMETHYLPYRIDINE-3-CARBONYL)PIPERAZIN-1-YL]PYRIDAZINE-3-CARBOXYLIC ACID (3-METHYLBUTYL)AMIDE] |  | 8% | 80 nM | 240 nM |
| O=C(NCCC1CC1)c1ccc(N2CCN(Cc3cc(Cl)ccc3C(F)(F)F)CC2)nn1 [6-[4-(5-CHLORO-2-TRIFLUOROMETHYLBENZYL)PIPERAZIN-1-YL]PYRIDAZINE-3-CARBOXYLIC ACID (2-CYCLOPROPYLETHYL)AMIDE] |  | 7% | 60 nM | 40 nM |
| O=C(NCCC1CC1)c1ccc(N2CCN(Cc3cc(F)ccc3C(F)(F)F)CC2)nn1 [6-[4-(5-FLUORO-2-TRIFLUOROMETHYLBENZYL)PIPERAZIN-1-YL]PYRIDAZINE-3-CARBOXYLIC ACID (2-CYCLOPROPYLETHYL)AMIDE] |  | 3% | 20 nM | 20 nM |
| O=C(NCCCC1CC1)c1ccc(N2CCN(Cc3cc(F)ccc3C(F)(F)F)CC2)nn1 [6-[4-(5-FLUORO-2-TRIFLUOROMETHYLBENZYL)PIPERAZIN-1-YL]PYRIDAZINE-3-CARBOXYLIC ACID (3-CYCLOPROPYLPROPYL)AMIDE] |  | 8% | 180 nM | 60 nM |
| O=C(NCc1ccccn1)c1ccc(N2CCN(C(=O)c3ccccc3C(F)(F)F)CC2)nn1 [Example 30, 6-[4-(2-TRIFLUOROMETHYLBENZOYL)PIPERAZIN-1-YL]PYRIDAZINE-3-CARBOXYLIC ACID (PYRIDIN-2-YL-METHYL)AMIDE] | 179 to 181 °C |  |  |  |
| O=C(NCCC1CC1)c1ccc(N2CCN(C(=S)c3ccccc3C(F)(F)F)CC2)nn1 [Example 31, 6-[4-(2-TRIFLUOROMETHYLTHIOBENZOYL)PIPERAZIN-1-YL]-PYRIDAZINE-3-CARBOXYLIC ACID (2-CYCLOPROPYLETHYL)AMIDE] | 117 to 120 °C |  |  |  |
